According to ChEMBL document CHEMBL3045652, “Biorational glycol diesters as dietary toxins versus bioefficacy of sucrose octanoate against lepidopteran larvae” (Ind Crops Prod, 2012):
Values after ≈ are worked out from the molar mass of the structure shown. Active and inactive are the calls of the source. The calls are words filed in the database; no cut-off is given here.

Tests used:
[1] = tested on: Spodoptera litura; experiment: Insecticidal activity against second-instar larval stage of Spodoptera litura fed with artificial diet containing compound assessed as growth inhibition after 7 days; assay type: functional, organism-based; details: for EC50: 168 h
[2] = tested on: Helicoverpa armigera; experiment: Insecticidal activity against second-instar larval stage of Helicoverpa armigera fed with artificial diet containing compound assessed as growth inhibition after 7 days; assay type: functional, organism-based; details: for EC50: 168 h
[3] = tested on: Helicoverpa armigera; experiment: Insecticidal activity against second-instar larval stage of Helicoverpa armigera fed with artificial diet containing compound assessed as mortality after 7 days; assay type: functional; details: 168 h
[4] = tested on: Spodoptera litura; experiment: Antifeedant activity against third-instar larval stage of Spodoptera litura fed with artificial diet containing compound assessed as relative growth rate at 8.25 mg/ml after 3 days (reference value: 1.37 +/- 0.12 mg/mg/day); assay type: functional
[5] = tested on: Helicoverpa armigera; experiment: Antifeedant activity against third-instar larval stage of Helicoverpa armigera fed with artificial diet containing compound assessed as efficiency index of ingested food at 9.88 mg/ml after 3 days (reference value: 52%); assay type: functional
[6] = tested on: Spodoptera litura; experiment: Antifeedant activity against third-instar larval stage of Spodoptera litura fed with artificial diet containing compound assessed as efficiency index of ingested food at 8.25 mg/ml after 3 days (reference value: 64.5%); assay type: functional
[7] = tested on: Spodoptera litura; experiment: Antifeedant activity against third-instar larval stage of Spodoptera litura fed with artificial diet containing compound assessed as relative consumption rate at 8.25 mg/ml after 3 days (reference value: 2.13 +/- 0.18 mg/mg/day); assay type: functional
[8] = tested on: Helicoverpa armigera; experiment: Antifeedant activity against third-instar larval stage of Helicoverpa armigera fed with artificial diet containing compound assessed as relative consumption rate at 9.88 mg/ml after 3 days (reference value: 1.88 +/- 0.14 mg/mg/day); assay type: functional
[9] = tested on: Spodoptera litura; experiment: Insecticidal activity against second-instar larval stage of Spodoptera litura fed with artificial diet containing compound assessed as mortality after 7 days; assay type: functional; details: 168 h
[10] = tested on: Helicoverpa armigera; experiment: Antifeedant activity against third-instar larval stage of Helicoverpa armigera fed with artificial diet containing compound assessed as relative growth rate at 9.88 mg/ml after 3 days (reference value: 0.97 +/- 0.13 mg/mg/day); assay type: functional
[11] = tested on: Helicoverpa armigera; experiment: Antifeedant activity against third-instar larval stage of Helicoverpa armigera fed with artificial diet containing compound assessed as efficiency index of ingested food at 5.38 mg/ml after 3 days (reference value: 52%); assay type: functional
[12] = tested on: Helicoverpa armigera; experiment: Insecticidal activity against second-instar larval stage of Helicoverpa armigera assessed as increase in mortality applied as spray at 1 to 10 mg/ml after 72 hr; assay type: functional, organism-based
[13] = tested on: Spodoptera litura; experiment: Antifeedant activity against third-instar larval stage of Spodoptera litura fed with artificial diet containing compound assessed as efficiency index of ingested food at 4.38 mg/ml after 3 days (reference value: 64.5%); assay type: functional
[14] = tested on: Spodoptera litura; experiment: Antifeedant activity against third-instar larval stage of Spodoptera litura fed with artificial diet containing compound assessed as relative growth rate at 4.38 mg/ml after 3 days (reference value: 1.37 +/- 0.12 mg/mg/day); assay type: functional
[15] = tested on: Helicoverpa armigera; experiment: Antifeedant activity against third-instar larval stage of Helicoverpa armigera fed with artificial diet containing compound assessed as relative growth rate at 5.38 mg/ml after 3 days (reference value: 0.97 +/- 0.13 mg/mg/day); assay type: functional
[16] = tested on: Spodoptera litura; experiment: Antifeedant activity against third-instar larval stage of Spodoptera litura fed with artificial diet containing compound assessed as relative consumption rate at 4.38 mg/ml after 3 days (reference value: 2.13 +/- 0.18 mg/mg/day); assay type: functional
[17] = tested on: Spodoptera litura; experiment: Insecticidal activity against second-instar larval stage of Spodoptera litura assessed as increase in mortality applied as spray at 1 to 10 mg/ml after 72 hr; assay type: functional, organism-based
[18] = tested on: Helicoverpa armigera; experiment: Antifeedant activity against third-instar larval stage of Helicoverpa armigera fed with artificial diet containing compound assessed as relative consumption rate at 5.38 mg/ml after 3 days (reference value: 1.88 +/- 0.14 mg/mg/day); assay type: functional

Row | Structure (SMILES) | growth inhibition (GI) [1] | EC50 [1] | growth inhibition (GI) [2] | EC50 [2] | further results
1 | CCCC(CC)C(=O)OCCOC(=O)C(CC)CCC (stereo not given) | Dose-dependent effect | 2800 µg/mL (≈ 9.78 mM) | Dose-dependent effect | 2440 µg/mL (≈ 8.52 mM) | 
2 | CCCCC(=O)OCC(C)OC(=O)CCCC (stereo not given) | Dose-dependent effect | 4240 µg/mL (≈ 17.4 mM) | Dose-dependent effect | 5540 µg/mL (≈ 22.7 mM) | 
3 | CCCCCC(=O)OCC(C)OC(=O)CCCCC (stereo not given) | Dose-dependent effect | 3810 µg/mL (≈ 14 mM) | Dose-dependent effect | 5260 µg/mL (≈ 19.3 mM) | 
4 | CCCC(CC)C(=O)OCC(C)OC(=O)C(CC)CCC (stereo not given) | Dose-dependent effect | 3760 µg/mL (≈ 12.5 mM) | Dose-dependent effect | 4860 µg/mL (≈ 16.2 mM) | 
5 | CCCC(=O)OCC(C)COC(=O)CCC | Dose-dependent effect | 4360 µg/mL (≈ 18.9 mM) | Dose-dependent effect | 4230 µg/mL (≈ 18.4 mM) | 
6 | CC(COC(=O)C(C)C)COC(=O)C(C)C | Dose-dependent effect | 7540 µg/mL (≈ 32.7 mM) | Dose-dependent effect | 8170 µg/mL (≈ 35.5 mM) | 
7 | CCCCC(=O)OCC(C)COC(=O)CCCC | Dose-dependent effect | 7020 µg/mL (≈ 27.2 mM) | Dose-dependent effect | 7840 µg/mL (≈ 30.3 mM) | 
8 | CCCCCC(=O)OCC(C)COC(=O)CCCCC | Dose-dependent effect | 7580 µg/mL (≈ 26.5 mM) | Dose-dependent effect | 7760 µg/mL (≈ 27.1 mM) | 
9 | CCCCCCCC(=O)OCC(C)COC(=O)CCCCCCC | Dose-dependent effect | 6210 µg/mL (≈ 18.1 mM) | Dose-dependent effect | 4540 µg/mL (≈ 13.3 mM) | 
10 | CCCC(CC)C(=O)OC1CCC(OC2CCC(OC(=O)C(CC)CCC)CC2)CC1 (stereo not given) [4-(4-O-(2-ETHYL)HEXANOYLCYCLOHEXYLOXY)-CYCLOHEXYL-(2-ETHYL)HEXANOATE] | Dose-dependent effect | 6270 µg/mL (≈ 14.3 mM) | Dose-dependent effect | 7000 µg/mL (≈ 16 mM) | 
11 | CCCC(=O)OC1CCC(OC2CCC(OC(=O)CCC)CC2)CC1 (stereo not given) [4-(4-O-BUTANOYLCYCLOHEXYLOXY)-CYCLOHEXYL BUTANOATE] | Dose-dependent effect | 6120 µg/mL (≈ 17.3 mM) | Dose-dependent effect | 7230 µg/mL (≈ 20.4 mM) | 
12 | CC(C)C(=O)OC1CCC(OC2CCC(OC(=O)C(C)C)CC2)CC1 (stereo not given) [4-(4-O-ISOBUTANOYLCYCLOHEXYLOXY)-CYCLOHEXYL ISOBUTANOATE] | Dose-dependent effect | 7860 µg/mL (≈ 22.2 mM) | Dose-dependent effect | 8110 µg/mL (≈ 22.9 mM) | 
13 | CCCCCCCC(=O)OC1CCC(OC2CCC(OC(=O)CCCCCCC)CC2)CC1 (stereo not given) [4-(4-O-OCTANOYLCYCLOHEXYLOXY)-CYCLOHEXYL OCTANOATE] | Dose-dependent effect | 5760 µg/mL (≈ 12.3 mM) | Dose-dependent effect | 6340 µg/mL (≈ 13.6 mM) | 
14 | CCCCC(=O)OC1CCC(OC2CCC(OC(=O)CCCC)CC2)CC1 (stereo not given) [4-(4-O-PENTANOYLCYCLOHEXYLOXY)-CYCLOHEXYL PENTANOATE] | Dose-dependent effect | 7890 µg/mL (≈ 20.6 mM) | Dose-dependent effect | 8240 µg/mL (≈ 21.5 mM) | 
15 | CCCC(=O)OCCOCCOC(=O)CCC [DIETHYLENE GLYCOL DIBUTANOATE] | Dose-dependent effect | 1760 µg/mL (≈ 7.15 mM) | Dose-dependent effect | 2890 µg/mL (≈ 11.7 mM) | 
16 | CCCCCC(=O)OCCOCCOC(=O)CCCCC [DIETHYLENE GLYCOL DIHEXANOATE] | Dose-dependent effect | 1940 µg/mL (≈ 6.42 mM) | Dose-dependent effect | 3900 µg/mL (≈ 12.9 mM) | 
17 | CC(C)C(=O)OCCOCCOC(=O)C(C)C [DIETHYLENE GLYCOL DIISOBUTANOATE] | Dose-dependent effect | 5120 µg/mL (≈ 20.8 mM) | Dose-dependent effect | 6450 µg/mL (≈ 26.2 mM) | 
18 | CCCCCCCC(=O)OCCOCCOC(=O)CCCCCCC [DIETHYLENE GLYCOL DIOCTANOATE] | Dose-dependent effect | 1540 µg/mL (≈ 4.3 mM) | Dose-dependent effect | 2880 µg/mL (≈ 8.03 mM) | 
19 | CCCCC(=O)OCCOCCOC(=O)CCCC [DIETHYLENE GLYCOL DIPENTANOATE] | Dose-dependent effect | 1880 µg/mL (≈ 6.85 mM) | Dose-dependent effect | 3870 µg/mL (≈ 14.1 mM) | 
20 | CCCCCC(=O)OCCOC(=O)CCCCC [ETHYLENE GLYCOL DIHEXANOATE] | Dose-dependent effect | 1780 µg/mL (≈ 6.89 mM) | Dose-dependent effect | 2160 µg/mL (≈ 8.36 mM) | 
21 | CC(C)C(=O)OCCOC(=O)C(C)C [ETHYLENE GLYCOL DIISOBUTANOATE] | Dose-dependent effect | 5000 µg/mL (≈ 24.7 mM) | Dose-dependent effect | 5880 µg/mL (≈ 29.1 mM) | 
22 | CCCC(CC)C(=O)OCCCCCOC(=O)C(CC)CCC (stereo not given) [PENTANE-1,5-DI-(2-ETHYLHEXANOATE)] | Dose-dependent effect | 7850 µg/mL (≈ 23.9 mM) | Dose-dependent effect | 5560 µg/mL (≈ 16.9 mM) | LC50 [3]: 2000 µg/mL (≈ 6.09 mM); Activity [4]: 1.06 mg/mg/day; ECI [5]: 40%; ECI [6]: 46%; Activity [7]: 1.99 mg/mg/day; Activity [8]: 1.8 mg/mg/day; LC50 [9]: 2000 µg/mL (≈ 6.09 mM); Activity [10]: 0.72 mg/mg/day
23 | CC(C)C(=O)OCCCCCOC(=O)C(C)C [PENTANE-1,5-DI-ISOBUTANOATE] | Dose-dependent effect | 7660 µg/mL (≈ 31.4 mM) | Dose-dependent effect | 7580 µg/mL (≈ 31 mM) | 
24 | CCCC(=O)OCCCCCOC(=O)CCC [PENTANE-1,5-DIBUTANOATE] | Dose-dependent effect | 4860 µg/mL (≈ 19.9 mM) | Dose-dependent effect | 4500 µg/mL (≈ 18.4 mM) | 
25 | CCCCCC(=O)OCCCCCOC(=O)CCCCC [PENTANE-1,5-DIHEXANOATE] | Dose-dependent effect | 7510 µg/mL (≈ 25 mM) | Dose-dependent effect | 8050 µg/mL (≈ 26.8 mM) | 
26 | CCCCCCCC(=O)OCCCCCOC(=O)CCCCCCC [PENTANE-1,5-DIOCTANOATE] | Dose-dependent effect | 4760 µg/mL (≈ 13.4 mM) | Dose-dependent effect | 4670 µg/mL (≈ 13.1 mM) | 
27 | CCCC(=O)OCCOCCOCCOC(=O)CCC [TRIETHYLENE GLYCOL DIBUTANOATE] | Dose-dependent effect | 1640 µg/mL (≈ 5.65 mM) | Dose-dependent effect | 2120 µg/mL (≈ 7.3 mM) | ECI [11]: 32.7%; LC50 [3]: 2000 µg/mL (≈ 6.89 mM); Activity [12]: Active; ECI [13]: 61%; Activity [14]: 0.77 mg/mg/day; Activity [15]: 0.54 mg/mg/day; Activity [16]: 2.06 mg/mg/day; Activity [17]: Active; LC50 [9]: 2000 µg/mL (≈ 6.89 mM); Activity [18]: 1.67 mg/mg/day
28 | CCCCC(=O)OCCOCCOCCOC(=O)CCCC [TRIETHYLENE GLYCOL DIPENTANOATE] | Dose-dependent effect | 1540 µg/mL (≈ 4.84 mM) | Dose-dependent effect | 2090 µg/mL (≈ 6.56 mM) | 
